Experiments:
monocytes = test: sFlt-1 release by monocytes in vitro (ELISA); type: cell-based, mouse; settings: 10 nM C5a for 4 h; pravastatin 5 μg/ml for 3 hours prior to C5a
Procedure: Protocol. Mice with a selective deletion of the TF gene in myeloid cells (TF^floxed/floxed/LysM-Cre mice) (Redecha et al., supra), were used for isolation of monocytes to study sVEGFR-1 production in vitro. Blockade of TF was carried out as in Example 17 by i.p. injections of anti-mTF antibody 1H1.
Protocol. Splenocytes were prepared from non pregnant CBA/J female mice and incubated for 4 h in culture medium supplemented with 10% inactivated fetal bovine serum (FBS). Non adherent cells were removed and adherent cells (>95% peroxidase-positive) were incubated in culture medium with the addition of 10 nM mouse recombinant C5a. A group of adherent monocytes was treated for 3 hours with pravastatin (5 μg/ml) prior to incubation with C5a. After 4 h of incubation with C5a, culture supernatants were collected and analyzed for sVEGFR-1 by ELISA (R&D Systems).

sFlt-1 = test: Plasma sFlt-1 (sVEGFR-1) ELISA in CBA/J×DBA/2 mice; type: in vivo, mouse; settings: day 7 of pregnancy
Procedure: Protocol. To determine the effect of pravastatin treatment on pregnancy loss and oxidative stress, group of mice was treated with pravastatin (Sigma Chemicals, St Louis, Mo.; 5 μg/mouse, IP) from day 4 to 15 of pregnancy. Pravastatin was directly dissolved in sterile PBS. Blood samples were obtained from pregnant females from days 1 to 15 of pregnancy from the submandibular vein. Nitric oxide (NO) was measured by a […] method (R&D Systems). Plasma sVEGFR-1 was measured with a commercial ELISA kit (R&D Systems).

TF = TF expression on peripheral blood monocytes, 2-color FACS; type: in vivo, mouse; settings: CBA/J×DBA/2 mice, FIG. 17G
Procedure: Determining TF Expression. TF expression on peripheral blood monocytes was analyzed by 2-color fluorescence-activated cell sorting (FACS). Heparinized whole blood obtained at day 7 from DBA/2 or BALB/c mated CBA/J females was stained with fluorescein isothiocyanate (FITC)-labeled anti-mouse F4/80 for FL1 (BD Biosciences Pharmingen) to identify monocytes and biotinylated rat anti-mTF antibody 1H1 and streptavidin-PerCP (BD Biosciences Pharmingen) as the FL3 fluorochrome. Red cells were lysed with ACK buffer (Redecha et al., supra). Preparations were then incubated with SA-PerCP and analyzed by FACS using a FACscan (BD Biosciences Pharmingen).

CBA/J×DBA/2 mice [1] = test: Fetal resorption frequency in CBA/J×DBA/2 matings (non aPL-dependent recurrent miscarriage); type: in vivo, mouse; settings: day 15 of pregnancy, FIG. 7, 15A, 17A
Description: Protocol. DBA/2-mated female CBA/J mice (CBA/J×DBA/2) are a well-studied model of immunologically mediated pregnancy loss that shares features with human recurrent miscarriage (Clark, D A et al., 1998, J. Immunol. 160:545-549; Blois, M. et al., 2005, J. Immunol. 174:1820-1829). Embryonic lethality in DBA/2-mated female CBA/J mice is believed to represent rejection of the semiallogeneic placenta by maternal-derived activated effectors. 8-10-wk-old virgin female CBA/J mice were mated with 8-14-wk-old CBA/J, BALB/c, or DBA/2 males. Females were inspected daily for vaginal plugs, and presence of a vaginal plug was designated as day 0 of pregnancy. A group of DBA/2- and BALB/c mated CBA/J females were treated with pravastatin (0.2 μg/g bw=5 μg/mouse, i.p) on days 5, 6 and 7 of pregnancy. […] Pregnant females were euthanized on day 15 and fetal resorption frequency was calculated.
Animals. Inbred CBA/J (H-2k), DBA/2 (H-2d) and BALB/c (H-2d) mice from The Jackson Laboratory were used. 8-10-wk-old virgin female CBA/J mice were mated with 8-14-wk-old BALB/c, or DBA/2 males. […] The frequency of fetal resorption was calculated on day 15 as previously described (Girardi et al., 2006, J Exp Med 203:2165-2175). Fetal weights were also determined. […]
(§1) Protocol. […] Nitric oxide (NO) was measured by a calorimetric method (R&D Systems). Plasma sVEGFR-1 was measured with a commercial ELISA kit (R&D Systems).

CBA/J×DBA/2 mice [2] = test: Fetal weight / IUGR in CBA/J×DBA/2 matings; type: in vivo, mouse; settings: day 15 of pregnancy, FIG. 10, 15B, 17B
Procedure: Protocol. 8-10-wk-old virgin female CBA/J mice were mated with 8-14-wk-old CBA/J, BALB/c, or DBA/2 males. Females were inspected daily for vaginal plugs, and presence of a vaginal plug was designated as day 0 of pregnancy. Pregnant mice were treated with pravastatin (0.2 μg/g bw=5 μg/mouse, i.p 18 hours prior to aPL or NHIgG injections on days 8 and 12). Pravastatin (Sigma Chemical, St Louis, Mo.) was dissolved in EtOH at a concentration of 10 mg/mL and diluted with NaCl 0.9% in a ratio of 1:1000 to yield a final concentration of 10 μg pravastatin per 1 mL carrier. The NaCl 0.9%-based carrier solution for the placebo group was prepared accordingly to include EtOH only (i.e., without pravastatin) at a concentration of 1:1000. Pregnant females were euthanized on day 15 and weights of fetuses were determined.
Animals. Inbred CBA/J (H-2k), DBA/2 (H-2d) and BALB/c (H-2d) mice from The Jackson Laboratory were used. 8-10-wk-old virgin female CBA/J mice were mated with 8-14-wk-old BALB/c, or DBA/2 males. Pregnant females were sacrificed at day 7 and at day 15. The frequency of fetal resorption was calculated on day 15 as previously described (Girardi et al., 2006, J Exp Med 203:2165-2175). Fetal weights were also determined. […]
as §1

CBA/J×DBA/2 mice [3] = test: Litter size at birth in CBA/J×DBA/2 matings; type: in vivo, mouse; settings: CBA/J×DBA/2 mice followed until delivery; FIG. 15C, 17C
Procedure: Measuring Thrombin-Anti-Thrombin Complexes. Thrombin anti thrombin III complex (TAT) was measured using a commercial ELISA kit (Enzygnost TAT; Dade Behring). Some mice from each experimental group were studied until delivery and the litter sizes were recorded at birth.

[4] = tested on: Isoprostane 8-iso-prostaglandin F2a (STAT-8); test: Placental STAT-8 (8-isoprostane) EIA, oxidative stress marker; type: in vivo, mouse; settings: CBA/J×DBA/2 mice, day 15 placentas, FIG. 16A
Procedure: STAT-8 Measurements. Isoprostane 8-iso-prostaglandin F2a (STAT-8) was measured as a marker for oxidative stress. Placental tissue was harvested at day 15 of pregnancy and homogenized in 9 volumes of 0.1 M Tris pH 7.4 containing 1 mM EDTA and 10 μM indomethacin and stored at −80° C. in the presence of 0.005% BHT before assayed for free 8-isoprostane using a STAT-8-Isoprostane EIA kit (Cayman Chemical Company, Ann Arbor, Mich.).

CC[C@H](C)C(=O)O[C@H]1C[C@H](O)C=C2C=C[C@H](C)[C@H](CC[C@@H](O)C[C@@H](O)CC(=O)O)[C@H]21 [pravastatin]
sFlt-1 released by monocytes (monocytes): 387 ± 78 pg/mL
plasma sFlt-1 levels (sFlt-1): 18650 ± 5680 pg/mL
% TF positive monocytes (TF): 10±4%

hirudin
fetal resorption / fetal loss (CBA/J×DBA/2 mice [1]): prevented fetal resorptions
IUGR / growth restriction (fetal weight) (CBA/J×DBA/2 mice [2]): prevented fetal resorptions and growth restriction
litter size at birth (CBA/J×DBA/2 mice [3]): increasing the litter size
placental STAT-8 increase [4]: prevented STAT-8 increase

— US20090312411A1, “PREVENTING OR REDUCING RISK OF MISCARRIAGES” (New York Society for the Raptured and Crippled Maintaining …, priority 2008, published 2009)
